Laboratory results taken from patent publication US12419307B2, “Mixtures comprising indazole pesticides” (FMC Corporation, priority 2019, dated 2025).
Like-named read-outs stand apart in the source and are kept apart here.

Key:
Assay type in all cases: in vivo
[1] = test system: diamondback moth (Plutella xylostella L.); experiment: Test E: diamondback moth control through ingestion only, sprayed cabbage leaf tissue (Dipel), mortality after 4 days; settings: Table 6c, read-out: % Mortality (obs)
Method: (§1) The pest control protection afforded by the mixtures or compositions is not limited, however, to these species. The analysis of enhanced activity between the mixtures or compositions was determined using Colby's equation. The average % mortality data for the test compounds alone were inserted into the Colby's equation. If the observed (obs) average % mortality was higher than “p”, the expected (exp) % mortality, the mixture or composition had enhanced effects. If the observed average % mortality was equal to or lower than the expected mortality, the mixture or composition either had no enhanced effect. For bioassays where insect feeding damage was evaluated, enhanced activity is identified when the observed plant damage is less than the expected plant damage rating; ratings ranged between 0 (no damage) and 10 (dead plant) and each value was converted to a % plant protection. 100−(Obs Plant Damage*10)
For evaluating control of diamondback moth (Plutella xylostella L.) through ingestion only, the test substance Dipel® (active ingredient Bacillus thuringiensis kurstaki) was formulated by diluting in water and then adding an MSO based adjuvant at 0.1% v/v. Cabbage plants were sprayed with Dipel® to runoff and allowed to dry for three hours. Once dry, plants leaf tissue was excised and one piece was placed into one well in an eight well tray. Test units were maintained in a growth chamber at 24-25° C. and 70% relative humidity.

[2] = test system: Western Flower Thrips (Frankliniella occidentalis Pergande); experiment: Test B: Western Flower Thrips control on bean plants, plant damage rating converted to % plant protection after 7 days; settings: for Plant Damage (obs): Table 3a; for Plant Damage (obs) / Plant Protection (obs): applied alone
How it was run: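 Sprayed 5- to 7-day-old bean (var. Soleil) plants, 3 replicates, dried 1 h, then infested with 22 to 27 adult thrips and held 7 days at 25° C, 45-55% RH. Feeding damage rated 0-10 and converted as 100−(rating×10) to % plant protection.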

[3] = test system: Potato Leafhopper (Empoasca fabae Harris); experiment: Test C: Potato Leafhopper control on bean plants, insect mortality after 6 days; settings: read-out: % Mortality (obs)
How it was run: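 Sprays (3 replicates) were applied to 5- to 6-day-old Longio bean plants with one primary leaf excised, which were dried 1 h and infested with 5 adult leafhoppers (18–21 days old). Mortality was scored after 6 days at 19-21° C and 50-70% RH. Mixture enhancement was judged against expected mortality by Colby's equation.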

[4] = test system: corn planthopper (Peregrinus maidis (Ashmead)); experiment: Test C: corn planthopper control on corn plants, insect mortality after 6 days; settings: Peregrinus maidis, read-out: % Mortality (obs)
Method: as §1
For evaluating control of corn planthopper (Peregrinus maidis (Ashmead)) through contact and/or systemic means, the test unit consisted of a small open container with a 3-4-day-old corn (maize) plant inside. White sand was added to the top of the soil prior to application of the test compound.
Test compounds were formulated and sprayed at 250 and/or 50 ppm and/or 10 ppm. After spraying of the formulated test compound, the test units were allowed to dry for 1 h before they were post-infested with ˜15-20 nymphs (18-to-21-day-old). […]

CC1(NC(=O)c2cccc3nn(-c4cccnc4)cc23)CC1 [Cpd 4, N-(1-methylcyclopropyl)-2-(3-pyridinyl)-2H-indazole-4-carboxamide]
mortality at 50 ppm ([1]; 50 ppm): 12.5%
mortality at 250 ppm ([1]; 250 ppm): 17%
pest or weed control at 11.1 ppm ([2]; Frankliniella occidentalis, 168 h, Table 3e, 11.1 ppm, read-out: Plant Protection (obs)): 60%
pest or weed control at 36.8 ppm ([2]; Frankliniella occidentalis, 168 h, Table 3e, 36.8 ppm, read-out: Plant Protection (obs)): 76.7%
pest or weed control at 11.1 ppm ([2]; Frankliniella occidentalis, 168 h, Table 3f, 11.1 ppm, read-out: Plant Protection (obs)): 73.3%
pest or weed control at 36.8 ppm ([2]; Frankliniella occidentalis, 168 h, Table 3f, 36.8 ppm, read-out: Plant Protection (obs)): 90%
pest or weed control at 11.1 ppm ([2]; Frankliniella occidentalis, 168 h, Table 3g, 11.1 ppm, read-out: Plant Protection (obs)): 20%
pest or weed control at 36.8 ppm ([2]; Frankliniella occidentalis, 168 h, Table 3g, 36.8 ppm, read-out: Plant Protection (obs)): 73.3%
pest or weed control at 2.93 ppm ([2]; Frankliniella occidentalis, 168 h, Table 3d, 2.93 ppm, read-out: Plant Protection (obs)): 50%
pest or weed control at 11.1 ppm ([2]; Frankliniella occidentalis, 168 h, Table 3d, 11.1 ppm, read-out: Plant Protection (obs)): 60%
pest or weed control at 16.1 ppm ([2]; Frankliniella occidentalis, 168 h, Table 3d, 16.1 ppm, read-out: Plant Protection (obs)): 86.7%
pest or weed control at 36.8 ppm ([2]; Frankliniella occidentalis, 168 h, Table 3d, 36.8 ppm, read-out: Plant Protection (obs)): 93.3%
Plant Damage (obs) ([2]; 11.1 ppm): 43.3%
Plant Damage (obs) ([2]; 36.8 ppm): 86.7%
Plant Protection (obs) ([2]; Table 3b, 11.1 ppm): 40.0%
Plant Protection (obs) ([2]; Table 3b, 36.8 ppm): 86.7%
Plant Protection (obs) ([2]; Table 3c, 11.1 ppm): 36.7%
Plant Protection (obs) ([2]; Table 3c, 36.8 ppm): 70.0%
mortality at 50 ppm ([3]; Table 4a): 7.1%
mortality at 250 ppm ([3]; Table 4a): 6.7%
mortality at 50 ppm ([3]; Table 4b): 0%
mortality at 250 ppm ([3]; Table 4b): 14.3%
mortality at 50 ppm ([3]; Table 4c): 26.7%
mortality at 250 ppm ([3]; Table 4c): 0%
mortality at 50 ppm ([4]; 96 h, Table 4d): 0%
mortality at 250 ppm ([4]; 96 h, Table 4d): 9.1%
mortality at 50 ppm ([4]; Table 4e): 38.9%
mortality at 250 ppm ([4]; Table 4e): 34.8%
mortality at 50 ppm ([4]; Table 4f): 1.8%
mortality at 250 ppm ([4]; Table 4f): 10.8%
mortality at 50 ppm ([4]; Table 4g): 1.8%
mortality at 250 ppm ([4]; Table 4g): 10.8%
